The text below walks through data of ChEMBL document CHEMBL4152338, “Design, synthesis and screening of 1, 2, 4-triazinone derivatives as potential antitumor agents with apoptosis inducing activity on MCF-7 breast cancer cell line” (Eur J Med Chem, 2018).

The source made the active and inactive calls. The rule behind the calls is not given here.

T1 sequence (Q02880 whole entry): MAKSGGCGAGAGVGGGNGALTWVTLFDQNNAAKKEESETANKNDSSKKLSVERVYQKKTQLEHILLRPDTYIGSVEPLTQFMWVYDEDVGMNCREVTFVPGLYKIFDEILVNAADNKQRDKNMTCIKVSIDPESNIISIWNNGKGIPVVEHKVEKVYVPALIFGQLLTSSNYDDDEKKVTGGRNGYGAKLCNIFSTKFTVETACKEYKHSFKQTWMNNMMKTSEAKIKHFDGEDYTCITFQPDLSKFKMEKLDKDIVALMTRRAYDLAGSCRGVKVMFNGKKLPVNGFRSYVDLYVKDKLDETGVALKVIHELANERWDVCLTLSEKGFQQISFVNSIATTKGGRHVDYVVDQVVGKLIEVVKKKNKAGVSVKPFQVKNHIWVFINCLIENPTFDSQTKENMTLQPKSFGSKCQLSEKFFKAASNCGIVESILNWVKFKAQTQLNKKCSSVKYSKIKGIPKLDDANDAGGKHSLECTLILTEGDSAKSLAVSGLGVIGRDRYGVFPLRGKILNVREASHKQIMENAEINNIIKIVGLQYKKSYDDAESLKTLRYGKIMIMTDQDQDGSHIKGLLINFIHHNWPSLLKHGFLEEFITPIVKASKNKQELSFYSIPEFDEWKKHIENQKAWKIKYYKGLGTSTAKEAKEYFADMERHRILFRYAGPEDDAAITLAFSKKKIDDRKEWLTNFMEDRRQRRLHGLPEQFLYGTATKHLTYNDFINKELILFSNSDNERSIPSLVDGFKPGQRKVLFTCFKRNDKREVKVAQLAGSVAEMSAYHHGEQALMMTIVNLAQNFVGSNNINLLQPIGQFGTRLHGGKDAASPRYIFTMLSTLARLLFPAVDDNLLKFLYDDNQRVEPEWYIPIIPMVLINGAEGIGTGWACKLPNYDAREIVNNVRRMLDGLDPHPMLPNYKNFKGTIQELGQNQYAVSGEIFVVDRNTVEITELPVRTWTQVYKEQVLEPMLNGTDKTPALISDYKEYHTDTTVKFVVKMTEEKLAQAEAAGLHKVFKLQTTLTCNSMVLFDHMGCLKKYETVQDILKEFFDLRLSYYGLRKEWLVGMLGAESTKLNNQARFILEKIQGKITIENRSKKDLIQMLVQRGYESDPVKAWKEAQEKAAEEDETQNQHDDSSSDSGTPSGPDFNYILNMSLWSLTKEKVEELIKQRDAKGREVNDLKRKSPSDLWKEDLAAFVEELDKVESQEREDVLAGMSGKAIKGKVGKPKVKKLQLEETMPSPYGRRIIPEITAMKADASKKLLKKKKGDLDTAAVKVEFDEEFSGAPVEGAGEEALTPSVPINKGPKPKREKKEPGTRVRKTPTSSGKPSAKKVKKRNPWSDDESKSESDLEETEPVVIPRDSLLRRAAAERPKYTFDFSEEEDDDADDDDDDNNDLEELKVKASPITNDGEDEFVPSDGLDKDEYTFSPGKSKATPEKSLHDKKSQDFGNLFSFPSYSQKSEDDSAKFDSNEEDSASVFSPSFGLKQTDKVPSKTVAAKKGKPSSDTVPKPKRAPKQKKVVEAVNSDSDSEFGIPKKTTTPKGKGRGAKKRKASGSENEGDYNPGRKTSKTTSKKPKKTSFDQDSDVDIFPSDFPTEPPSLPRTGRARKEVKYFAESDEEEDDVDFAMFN

For the first assay, the system named is MCF7. The experiment in a line: Cell cycle arrest in human MCF7 cells assessed as accumulation at G2 phase at IC50 after 24 hrs by propidium iodide staining-based flow cytometric analysis. The format is functional.
Settings: not given
(In flow cytometry, cells or beads pass a laser one at a time.)
On to `COc1cc(C2=N/C(=C\c3cc(Br)cc(Br)c3OC(C)=O)C(=O)NN2c2ncc(-c3ccccc3)s2)cc(OC)c1OC`, for which the result was Active.
Still for that read-out and setting: with `COc1cc(C2=N/C(=C\c3cc(Br)cc(Br)c3OC(C)=O)C(=O)NN2c2ccccc2)cc(OC)c1OC` the entry was “Active”.

In a further assay the test system is MCF7. In words: Down regulation of Bcl-2 level in human MCF7 cells at IC50 incubated for 24 hrs by ELISA. The format is functional, cell-based.
Settings: not given
(ELISA stands for enzyme-linked immunosorbent assay.)
For the molecule `COc1cc(C2=N/C(=C\c3cc(Br)cc(Br)c3OC(C)=O)C(=O)NN2c2ncc(-c3ccccc3)s2)cc(OC)c1OC`, the result was Active.
Consider `COc1cc(C2=N/C(=C\c3cc(Br)cc(Br)c3OC(C)=O)C(=O)NN2c2ccccc2)cc(OC)c1OC`, for which the result was Active.

Another assay deals with MCF7. In words: Potency index, ratio of podophyllotoxin IC50 to compound IC50 for human MCF7 cells. The format is functional.
Settings: not given
As for `COc1cc(C2=N/C(=C\c3cc(Br)cc(Br)c3OC(C)=O)C(=O)NN2c2ncc(-c3ccccc3)s2)cc(OC)c1OC`, the “Ratio IC50” value was 6.
On the same count and under the same terms, with `COc1cc(C2=N/C(=C\c3cc(Br)cc(Br)c3OC(C)=O)C(=O)NN2c2ccccc2)cc(OC)c1OC` the figure was 6.

The next assay concerns the target T1, DNA topoisomerase 2-beta (Homo sapiens, UniProt Q02880). The experiment in a line: Inhibition of human DNA topoisomerase 2beta after 2 hrs by ELISA.
Settings: not given
As usually defined, the IC50 is the concentration that inhibits the measured activity by half. A low value points to higher potency. `COc1cc(C2=N/C(=C\c3cc(Br)cc(Br)c3OC(C)=O)C(=O)NN2c2ncc(-c3ccccc3)s2)cc(OC)c1OC` came in with an IC50 of 6.85 nM.
The molecule `COc1cc(C2=N/C(=C\c3cc(Br)cc(Br)c3OC(C)=O)C(=O)NN2c2ccccc2)cc(OC)c1OC` yielded an IC50 of 12.6 nM.

Another assay relates to MCF7. The experiment in a line: Induction of apoptosis in human MCF7 cells assessed as necrotic cells at IC50 after 24 hrs by annexin V/FITC-propidium iodide staining-based flow cytometric method (reference value: 0.53%). The format is functional.
Settings: not given
Turning to `COc1cc(C2=N/C(=C\c3cc(Br)cc(Br)c3OC(C)=O)C(=O)NN2c2ncc(-c3ccccc3)s2)cc(OC)c1OC`, the Activity stood at 3.31%.
The same measure, in the same setting: as for `COc1cc(C2=N/C(=C\c3cc(Br)cc(Br)c3OC(C)=O)C(=O)NN2c2ccccc2)cc(OC)c1OC`, the figure is 3.14%.

The subject of the next assay is MCF7. The experiment in a line: Potency index, ratio of ratio of compound effect to podophyllotoxin efect for induction of apoptosis in human MCF7 cells. The format is functional.
Settings: not given
Turning to `COc1cc(C2=N/C(=C\c3cc(Br)cc(Br)c3OC(C)=O)C(=O)NN2c2ccccc2)cc(OC)c1OC`, the Ratio came to 1.5.

The subject of the next assay is MCF7. In words: Induction of apoptosis in human MCF7 cells assessed as early apoptotic cells at IC50 after 24 hrs by annexin V/FITC-propidium iodide staining-based flow cytometric method (reference value: 0.72%). The format is functional.
Settings: not given
On to `COc1cc(C2=N/C(=C\c3cc(Br)cc(Br)c3OC(C)=O)C(=O)NN2c2ncc(-c3ccccc3)s2)cc(OC)c1OC`, for which the Activity amounted to 3.64%.
The same measure, in the same setting: as for `COc1cc(C2=N/C(=C\c3cc(Br)cc(Br)c3OC(C)=O)C(=O)NN2c2ccccc2)cc(OC)c1OC`, the figure is 5.47%.

The next assay deals with MCF7. The experiment in a line: Upregulation of Bax level in human MCF7 cells at IC50 incubated for 24 hrs by ELISA relative to control.
Settings: not given
It is filed as functional.
`COc1cc(C2=N/C(=C\c3cc(Br)cc(Br)c3OC(C)=O)C(=O)NN2c2ncc(-c3ccccc3)s2)cc(OC)c1OC`: the “fold change (FC)” value worked out at 3.4.
On the same count and under the same terms, with `COc1cc(C2=N/C(=C\c3cc(Br)cc(Br)c3OC(C)=O)C(=O)NN2c2ccccc2)cc(OC)c1OC` the figure was 3.9.

The next assay concerns MCF7. In words: Cell cycle arrest in human MCF7 cells assessed as decrease in accumulation at G1 phase at IC50 after 24 hrs by propidium iodide staining-based flow cytometric analysis.
Settings: not given
The format is functional.
As for `COc1cc(C2=N/C(=C\c3cc(Br)cc(Br)c3OC(C)=O)C(=O)NN2c2ncc(-c3ccccc3)s2)cc(OC)c1OC`, the result was Active.
The same measure, in the same setting: with `COc1cc(C2=N/C(=C\c3cc(Br)cc(Br)c3OC(C)=O)C(=O)NN2c2ccccc2)cc(OC)c1OC` the entry was “Active”.

For another assay, the system named is MCF7. In words: Upregulation of caspase3/7 level in human MCF7 cells at IC50 incubated for 24 hrs by green flow cytometric analysis relative to control. It is filed as functional.
Settings: not given
For the molecule `COc1cc(C2=N/C(=C\c3cc(Br)cc(Br)c3OC(C)=O)C(=O)NN2c2ncc(-c3ccccc3)s2)cc(OC)c1OC`, the “fold change (FC)” value came out at 15.6.
Still for that read-out and setting: with `COc1cc(C2=N/C(=C\c3cc(Br)cc(Br)c3OC(C)=O)C(=O)NN2c2ccccc2)cc(OC)c1OC` the figure was 18.

The target in the next assay is T1, DNA topoisomerase 2-beta. In words: Potency index, ratio of etopside IC50 to compound IC50 for topoisomerase 2beta in human MCF7 cells. It is filed as cell-based.
Settings: not given
Take `COc1cc(C2=N/C(=C\c3cc(Br)cc(Br)c3OC(C)=O)C(=O)NN2c2ncc(-c3ccccc3)s2)cc(OC)c1OC`: the Ratio IC50 was 10.2.
Same read-out and setting: with `COc1cc(C2=N/C(=C\c3cc(Br)cc(Br)c3OC(C)=O)C(=O)NN2c2ccccc2)cc(OC)c1OC` the figure was 5.3.

A further assay has as its system MCF7. In words: Induction of apoptosis in human MCF7 cells assessed as viable cells at IC50 after 24 hrs by annexin V/FITC-propidium iodide staining-based flow cytometric method (reference value: 96.57%). The format is functional.
Settings: not given
Turning to `COc1cc(C2=N/C(=C\c3cc(Br)cc(Br)c3OC(C)=O)C(=O)NN2c2ncc(-c3ccccc3)s2)cc(OC)c1OC`, the Activity is 84.46%.
The same measure, in the same setting: with `COc1cc(C2=N/C(=C\c3cc(Br)cc(Br)c3OC(C)=O)C(=O)NN2c2ccccc2)cc(OC)c1OC` the figure was 81.41%.

A further assay concerns MCF7. The experiment in a line: Induction of apoptosis in human MCF7 cells assessed as late apoptotic cells at IC50 after 24 hrs by annexin V/FITC-propidium iodide staining-based flow cytometric method (reference value: 0.34%). The format is functional.
Settings: not given
As to `COc1cc(C2=N/C(=C\c3cc(Br)cc(Br)c3OC(C)=O)C(=O)NN2c2ncc(-c3ccccc3)s2)cc(OC)c1OC`, the Activity was 6.33%.
On the same count and under the same terms, with `COc1cc(C2=N/C(=C\c3cc(Br)cc(Br)c3OC(C)=O)C(=O)NN2c2ccccc2)cc(OC)c1OC` the figure was 7.85%.

A further assay concerns MCF7. In words: Upregulation of p53 level in human MCF7 cells at IC50 incubated for 24 hrs by ELISA relative to podophyllotoxin.
Settings: not given
The format is functional.
`COc1cc(C2=N/C(=C\c3cc(Br)cc(Br)c3OC(C)=O)C(=O)NN2c2ncc(-c3ccccc3)s2)cc(OC)c1OC`: the “fold change (FC)” value worked out at 1.75.
For the molecule `COc1cc(C2=N/C(=C\c3cc(Br)cc(Br)c3OC(C)=O)C(=O)NN2c2ccccc2)cc(OC)c1OC`, the “fold change (FC)” value was determined as 2.1.

For a further assay, the system named is MCF7. In words: Upregulation of p53 level in human MCF7 cells at IC50 incubated for 24 hrs by ELISA relative to control.
Settings: not given
The format is functional.
As for `COc1cc(C2=N/C(=C\c3cc(Br)cc(Br)c3OC(C)=O)C(=O)NN2c2ncc(-c3ccccc3)s2)cc(OC)c1OC`, the “fold change (FC)” value was 9.2.
The same measure, in the same setting: with `COc1cc(C2=N/C(=C\c3cc(Br)cc(Br)c3OC(C)=O)C(=O)NN2c2ccccc2)cc(OC)c1OC` the figure was 1.9.

For another assay, the system named is MCF7. The experiment in a line: Inhibition of tubulin beta polymerization in human MCF7 cells at IC50 after 18 to 24 hrs by spectrophotometric method relative to control. The format is cell-based.
Settings: not given
A word on the inhibition: it is the relative decrease from the control value, in per cent. In turn, `COc1cc(C2=N/C(=C\c3cc(Br)cc(Br)c3OC(C)=O)C(=O)NN2c2ncc(-c3ccccc3)s2)cc(OC)c1OC` came in with an inhibition of 55.2%.
As for `COc1cc(C2=N/C(=C\c3cc(Br)cc(Br)c3OC(C)=O)C(=O)NN2c2ccccc2)cc(OC)c1OC`, the inhibition stood at 33.4%.

The next assay has as its system MCF7. In words: Antiproliferative activity against human MCF7 cells after 48 hrs by MTT assay. It is filed as functional, cell-based. Particulars: MCF7, 48 h. In general terms: Tetrazolium dyes change colour on reduction, which living cells bring about.
Turning to `COc1cc(C2=N/C(=C\c3cc(Br)cc(Br)c3OC(C)=O)C(=O)NN2c2ncc(-c3ccccc3)s2)cc(OC)c1OC`, inhibition was half-maximal at 410 nM (IC50).
Same read-out and setting: with `COc1cc(C2=N/C(=C\c3cc(Br)cc(Br)c3OC(C)=O)C(=O)NN2c2ccccc2)cc(OC)c1OC` the figure was 350 nM.

Tested on in another assay: not listed separately
In words: Antiproliferative activity against human Hs 371.T cells after 48 hrs by MTT assay. The format is cell-based.
Settings: not given
Regarding `COc1cc(C2=N/C(=C\c3cc(Br)cc(Br)c3OC(C)=O)C(=O)NN2c2ncc(-c3ccccc3)s2)cc(OC)c1OC`, it took 77400 nM to reach half-maximal inhibition (IC50).
Same read-out and setting: with `COc1cc(C2=N/C(=C\c3cc(Br)cc(Br)c3OC(C)=O)C(=O)NN2c2ccccc2)cc(OC)c1OC` the figure was 44300 nM.

Another assay has as its system MCF7. The experiment in a line: Upregulation of caspase3/7 level in human MCF7 cells at IC50 assessed as caspase 3/7 green fluorescence incubated for 24 hrs by green flow cytometric analysis (reference value: 0.49%). The format is functional.
Settings: not given
Regarding `COc1cc(C2=N/C(=C\c3cc(Br)cc(Br)c3OC(C)=O)C(=O)NN2c2ncc(-c3ccccc3)s2)cc(OC)c1OC`, the Activity is listed as 7.79%.
Still for that read-out and setting: with `COc1cc(C2=N/C(=C\c3cc(Br)cc(Br)c3OC(C)=O)C(=O)NN2c2ccccc2)cc(OC)c1OC` the figure was 11.28%.

A further assay concerns MCF7. In words: Increase in Bax/Bcl-2 ratio in human MCF7 cells at IC50 incubated for 24 hrs by ELISA. The format is functional, cell-based.
Settings: not given
In the case of `COc1cc(C2=N/C(=C\c3cc(Br)cc(Br)c3OC(C)=O)C(=O)NN2c2ncc(-c3ccccc3)s2)cc(OC)c1OC`, the result was Active.
Same read-out and setting: with `COc1cc(C2=N/C(=C\c3cc(Br)cc(Br)c3OC(C)=O)C(=O)NN2c2ccccc2)cc(OC)c1OC` the entry was “Active”.

The subject of a further assay is MCF7. In words: Potency index, ratio of ratio of compound effect to podophyllotoxin efect for cell cycle arrest in human MCF7 cells assessed as increase in cell percentage at G0 phase at IC50 after 24 hrs by propidium iodide staining-based flow cytometric analysis. It is filed as functional.
Settings: not given
With `COc1cc(C2=N/C(=C\c3cc(Br)cc(Br)c3OC(C)=O)C(=O)NN2c2ccccc2)cc(OC)c1OC`, the Ratio came to 1.4.

For the next assay, the system named is MCF7. The experiment in a line: Cell cycle arrest in human MCF7 cells assessed as increase in accumulation at G0 phase at IC50 after 24 hrs by propidium iodide staining-based flow cytometric analysis. It is filed as functional.
Settings: not given
`COc1cc(C2=N/C(=C\c3cc(Br)cc(Br)c3OC(C)=O)C(=O)NN2c2ncc(-c3ccccc3)s2)cc(OC)c1OC`: the result was Active.
In the case of `COc1cc(C2=N/C(=C\c3cc(Br)cc(Br)c3OC(C)=O)C(=O)NN2c2ccccc2)cc(OC)c1OC`, the result was Active.
